The values below are quoted from earlier work in patent publication US20080171791A1, “Compositions and Method for Losing Weight” (MDR Fitness Corp., priority 2007, published 2008).

Each structure is given as a SMILES string.

For data set [1] the following is noted: long-term / large quantities / higher amounts ingested.
For data set [2] the following is noted: in vivo.
The next data set concerns lipogenic genes. To be noted: compared with oleic acid (C18-1).
Data set [3] deals with mammalian target of rapamycin (mTOR) signaling pathway. To be noted: rats; for food intake: administered near arcuate nucleus, approximately four hours after administration, lasted 24 hours.

As to `CCC(C)[C@H](N)C(=O)O` (stereo in doubt) [Isoleucine, (2S, 3S)-2-amino-3-methylpentanoic acid], the solubility in water entry was “not soluble in water”. Moreover, the reported adverse effects entry in data set [1] was “increased urination”.
On to `CCCCCCCCC=CCCCCCCCC(=O)O` [oleic acid, 9-octadecenoic acid], for which, in data set [2], the “absorption from the digestive tract” value was “absorbed intact” and the “crossing the blood-brain barrier” value is given as “capable of crossing the blood-brain barrier”.
In the case of `CCCCC/C=C\C/C=C\C/C=C\C/C=C\CCCC(=O)O` [arachidonic acid], in the data set with lipogenic genes, the “suppression of lipogenic genes” value is “more effective”.
Consider `CCCCC/C=C\C/C=C\CCCCCCCC(=O)O` [linoleic acid], for which the “suppression of lipogenic genes” value in the data set on lipogenic genes is “more effective”.
As for `CC(C)C[C@H](N)C(=O)O` [L-leucine, leucine], the solubility in water result is reported as “slightly soluble in water”. For the same compound, the body weight result in data set [3] (accompanying decrease in food intake) was “weight loss”. For the same compound, in data set [3], the food intake entry is listed as “decrease”. The “crossing the blood-brain barrier” value in data set [2] was “capable of crossing the blood-brain barrier”.
With `CC(C)[C@H](N)C(=O)O` [L-valine, valine], the solubility in water entry is “water soluble”. For the same compound, the food intake entry in data set [3] was “did not cause the same effect”. Besides, the reported adverse effects result in data set [1] is “hallucinations and crawling sensations on the skin”.
